US20220324862A1, “PYRIDOPYRIMIDINONE COMPOUNDS” (Acerand Therapeutics (USA) Limited, priority 2021, published 2022)

Target: T1, protein-protein interaction between SOS1 and KRAS-G12D (Homo sapiens, UniProt Q07889)
T1 construct: The purified GST-SOS1 catalytic domain (residues 564-1049) was first diluted in assay buffer; made in house; host or cells: E. coli BL21 (DE3) for SOS1; E. coli BL21 carrying a BirA plasmid for KRAS-G12D
T1 sequence (Q07889 564-1049): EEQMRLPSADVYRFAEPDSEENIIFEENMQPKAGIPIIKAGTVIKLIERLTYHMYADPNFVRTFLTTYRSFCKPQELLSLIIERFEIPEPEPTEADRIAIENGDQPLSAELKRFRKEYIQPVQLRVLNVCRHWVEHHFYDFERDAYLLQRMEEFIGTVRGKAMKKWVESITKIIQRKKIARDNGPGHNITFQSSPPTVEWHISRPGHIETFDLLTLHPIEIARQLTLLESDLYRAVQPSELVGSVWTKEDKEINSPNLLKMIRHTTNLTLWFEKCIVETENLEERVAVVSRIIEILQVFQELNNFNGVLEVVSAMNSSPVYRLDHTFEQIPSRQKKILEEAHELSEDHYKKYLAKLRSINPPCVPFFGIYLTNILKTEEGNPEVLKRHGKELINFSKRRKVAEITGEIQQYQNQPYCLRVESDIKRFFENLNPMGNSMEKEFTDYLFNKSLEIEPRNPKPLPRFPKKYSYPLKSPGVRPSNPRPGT
Assay: HTRF Based Protein-Protein Interaction Assay
Type: binding
Conditions: HTRF; GST-SOS1 2.5 nM, KRAS-G12D 100 nM, GDP 10 uM; read-out: IC50 value, inhibition of SOS1/KRAS-G12D protein-protein interaction
Text: A KRAS-G12D and SOS1 binding/interaction assay was designed to measure the interaction between KRAS-G12D and SOS1 proteins. Utilizing HTRF (Homogeneous Time-Resolved Fluorescence) technology, the assay enabled simple and rapid characterization of compound and protein interaction in a high throughput format. This assay was used to examine potency of the compounds in inhibiting the protein-protein interaction between SOS1 and KRAS-G12D. […] Low IC50 values are indicative of high potency of the SOS1 inhibitor compound to disrupt SOS1 and Kras-G12D interaction.
Protein Expression and Purification. The corresponding gene sequence to human SOS1 (residues 564-1049, UniProt ID: Q07889; SEQ ID NO: 2) was synthesized and fused in frame with GST expression vector. After the desired sequence was confirmed, plasmid containing the sequence was transformed into the E. coli strain BL21 (DE3). Bacteria were growing at 37° C. in LB media containing 50 μg/ml Kanamycin to give OD600 of 0.6-0.8. Then 0.2 mM IPTG was added to induce protein expression for 16 hours at 17° C. Bacteria were harvested by centrifugation and stored at −80° C. Bacteria pellets were resuspended in lysis buffer (25 mM Tris-HCl, 500 mM NaCl, 2 mM DTT, 2.3% sucrose, 0.3% dextran-10, 1 mM PMSF, pH 7.5) and lysed using high-pressure homogenizer. The lysate was cleared by centrifugation for 30 minutes (12000 rpm at 4° C.). The supernatant containing GST-SOS1 fragment was purified sequentially through Glutathione column and gel filtration (Hiload 16/600 Superdex […] column, Cytiva). The purified GST-SOS1 fragment was confirmed by SDS-PAGE and stored in 25 mM Tris-HCl, 100 mM NaCl, 1 mM DTT, 2.3% sucrose, 0.3% dextran-10, pH 7.5 at −80° C.
Kras-G12D Protein Purification. The sequence corresponding to human KRAS-G12D (residues 1-169, UniProt P01116-2; SEQ ID NO: 1) was synthesized and fused in frame with His-AVI-TEV vector. The plasmid was transformed into the E. coli strain BL21 (containing a plasmid that can generate BirA enzyme). Bacteria were growing at 37° C. in TB media containing 100 μg/ml ampicillin and 50 μg/ml Kanamycin to give OD600 of 0.6-0.8. The 0.5 mM IPTG and 50 mg/l biotin were added to induce protein expression for 16 hours at 25° C. Bacteria were harvested by centrifugation and stored at −80° C. Bacteria pellets were re-suspended in lysis buffer (20 mM Tris-HCl, 500 mM NaCl, 5 mM MgCl2, 2 mM […], 5% glycerol, pH 8.0) and lysed using high-pressure homogenizer. The lysate was cleared by centrifugation for 30 minutes (12000 rpm at 4° C.). The supernatant containing HIS-AVI-TEV-KRAS-G12D fragment was purified sequentially through Ni-NTA column (SMART), Streptactin column (SMART), and gel filtration (Hiload 16/600 Superdex 75 pg, GE). The purified HIS-AVI-TEV-KRAS-G12D fragment was confirmed by SDS-PAGE and stored in 50 mM HEPES-NaOH, 100 mM NaCl, 1 mM DTT, 5 mM MgCl2, pH 7.5 at −80° C.
Protein-Protein Interaction Assay. An assay buffer containing 50 mM HEPES, pH 7.5, 50 mM NaCl, 0.01% Brij-35, 1 mM TCEP, 0.1% BSA was prepared, and concentration series of test compounds were generated spanning from 0.5 nM to 10 μM over 10 3-fold serial dilutions in a 384-well assay plate at a volume of 20 pL. The purified GST-SOS1 catalytic domain (residues 564-1049) was first diluted in assay buffer and 5 μl of SOS1 (final concentration 2.5 nM in assay mixture) was directly dispensed into compound plates. After a spin down at 1000 RPM for 30 seconds, the SOS1/compound mixture was incubated at 25° C. for 15 minutes to allow the reaction between SOS1 and the compound. A KRAS-G12D mixture was prepared by incubation of avi-tagged Kras-G12D (residue 1-169) and GDP in assay buffer containing 10 mM MgCl2 at room temperature for 10 minutes. A KRAS-G12D and GDP mixture (5 μL) was added to the assay plate (final KRAS-G12D was 100 nM and GDP was 10 uM). The plate was centrifuged at 1000 rpm for 30 sec and incubated at 25° C. for 60 minutes. […]

Structure (SMILES)	IC50
C#C[C@@H](Nc1nc(C)nc2cc(=O)n(C3CC(F)(F)C3)cc12)c1cccc(C(F)(F)F)c1C [Compound 11, (R)-6-(3,3-difluorocyclobutyl)-2-methyl-4-((1-(2-methyl-3-(trifluoromethyl)phenyl)prop-2-yn-1-yl)amino)pyrido[4,3-d]pyrimidin-7(6H)-one]	< 100 nM
C#C[C@@H](Nc1nc(C)nc2cc(=O)n(C3CC(F)(F)C3)cc12)c1cccc(C(F)F)c1F [Compound 29, (R)-6-(3,3-difluorocyclobutyl)-4-((1-(3-(difluoromethyl)-2-fluorophenyl)prop-2-yn-1-yl)amino)-2-methylpyrido[4,3-d]pyrimidin-7(6H)-one]	< 100 nM
C#C[C@@H](Nc1nc(C)nc2cc(=O)n(C3(C)CC3)cc12)c1cccc(C(F)(F)F)c1C [Compound 18, (R)-2-methyl-4-((1-(2-methyl-3-(trifluoromethyl)phenyl)prop-2-yn-1-yl)amino)-6-(1-methylcyclopropyl)pyrido[4,3-d]pyrimidin-7(6H)-one]	< 100 nM
C#C[C@@H](Nc1nc(C)nc2cc(=O)n(C3(C)CCOC3)cc12)c1cccc(C(F)F)c1C (mixture of isomers) [Compound 13, 4-(((R)-1-(3-(difluoromethyl)-2-methylphenyl)prop-2-yn-1-yl)amino)-2-methyl-6-(3-methyltetrahydrofuran-3-yl)pyrido[4,3-d]pyrimidin-7(6H)-one]	< 100 nM
C#C[C@@H](Nc1nc(C)nc2cc(=O)n(C3(C)CCOC3)cc12)c1cccc(C(F)(F)F)c1C (stereo partly drawn) [Compound 7, 2-methyl-4-(((R)-1-(2-methyl-3-(trifluoromethyl)phenyl)prop-2-yn-1-yl)amino)-6-(3-methyltetrahydrofuran-3-yl)pyrido[4,3-d]pyrimidin-7(6H)-one]	< 100 nM
C#C[C@@H](Nc1nc(C)nc2cc(=O)n(C(C)C(F)(F)F)cc12)c1cccc(C(F)(F)F)c1C (mixture of isomers) [Compound 8, 2-methyl-4-(((R)-1-(2-methyl-3-(trifluoromethyl)phenyl)prop-2-yn-1-yl)amino)-6-(1,1,1-trifluoropropan-2-yl)pyrido[4,3-d]pyrimidin-7(6H)-one]	< 100 nM
C#C[C@@H](Nc1ncnc2cc(=O)n(C3(C(F)F)CC3)cc12)c1cccc(C(F)F)c1C [Compound 40, (R)-4-((1-(3-(difluoromethyl)-2-methylphenyl)prop-2-yn-1-yl)amino)-6-(1-(difluoromethyl)cyclopropyl)pyrido[4,3-d]pyrimidin-7(6H)-one]	< 100 nM
C#C[C@@H](Nc1nc(C)nc2cc(=O)n(C3CCC3)cc12)c1cccc(C(F)(F)F)c1C [Compound 3, (R)-6-cyclobutyl-2-methyl-4-((1-(2-methyl-3-(trifluoromethyl)phenyl)prop-2-yn-1-yl)amino)pyrido[4,3-d]pyrimidin-7(6H)-one]	< 100 nM
C#C[C@@H](Nc1nc(C)nc2cc(=O)n(C3(C(F)F)CC3)cc12)c1cccc(C#N)c1F [Compound 42, (R)-3-(1-((6-(1-(difluoromethyl)cyclopropyl)-2-methyl-7-oxo-6,7-dihydropyrido[4,3-d]pyrimidin-4-yl)amino)prop-2-yn-1-yl)-2-fluorobenzonitrile]	< 100 nM
C#C[C@@H](Nc1nc(C)nc2cc(=O)n(C3(CF)CC3)cc12)c1cccc(C(F)F)c1F [Compound 32, (R)-4-((1-(3-(difluoromethyl)-2-fluorophenyl)prop-2-yn-1-yl)amino)-6-(1-(fluoromethyl)cyclopropyl)-2-methylpyrido[4,3-d]pyrimidin-7(6H)-one]	< 100 nM
C#C[C@@H](Nc1nc(C)nc2cc(=O)n(C3(C)CC3)cc12)c1cccc2c1CCC2(F)F [Compound 23, (R)-4-((1-(1,1-difluoro-2,3-dihydro-1H-inden-4-yl)prop-2-yn-1-yl)amino)-2-methyl-6-(1-methylcyclopropyl)pyrido[4,3-d]pyrimidin-7(6H)-one]	< 100 nM
C#C[C@@H](Nc1nc(C)nc2cc(=O)n(C3(C)CC3)cc12)c1cccc(C(F)F)c1F [Compound 20, (R)-4-((1-(3-(difluoromethyl)-2-fluorophenyl)prop-2-yn-1-yl)amino)-2-methyl-6-(1-methylcyclopropyl)pyrido[4,3-d]pyrimidin-7(6H)-one]	< 100 nM
C#C[C@@H](Nc1nc(C)nc2cc(=O)n(C3(C)CC3)cc12)c1cccc2c1OCC2(F)F [Compound 21, (R)-4-((1-(3,3-difluoro-2,3-dihydrobenzofuran-7-yl)prop-2-yn-1-yl)amino)-2-methyl-6-(1-methylcyclopropyl)pyrido[4,3-d]pyrimidin-7(6H)-one]	< 100 nM
C#C[C@@H](Nc1nc(C)nc2cc(=O)n(C3(C#C)CC3)cc12)c1cccc(C(F)F)c1F [Compound 26, (R)-4-((1-(3-(difluoromethyl)-2-fluorophenyl)prop-2-yn-1-yl)amino)-6-(1-ethynlcyclopropyl)-2-methylpyrido [4,3-d]pyrimidin-7(6H)-one]	< 100 nM
C#C[C@@H](Nc1nc(C)nc2cc(=O)n(C3CC4(C3)CN(C)C4)cc12)c1cccc(C(F)F)c1C [Compound 38, (R)-4-((1-(3-(difluoromethyl)-2-methylphenyl)prop-2-yn-1-yl)amino)-2-methyl-6-(2-methyl-2-azaspiro[3.3]heptan-6-yl)pyrido[4,3-d]pyrimidin-7(6H)-one]	< 100 nM
C#C[C@@H](Nc1nc(C)nc2c(Br)c(=O)n(C3(C(F)F)CC3)cc12)c1cccc(C(F)F)c1C [Compound 39, (R)-8-bromo-4-((1-(3-(difluoromethyl)-2-methylphenyl)prop-2-yn-1-yl)amino)-6-(1-(difluoromethyl)cyclopropyl)-2-methylpyrido[4,3-d]pyrimidin-7(6H)-one]	< 100 nM
C#C[C@@H](Nc1nc(C)nc2c(C)c(=O)n(C3(C)CC3)cc12)c1cccc(C(F)(F)F)c1C [Compound 28, (R)-2,8-dimethyl-4-((1-(2-methyl-3-(trifluoromethyl)phenyl)prop-2-yn-1-yl)amino)-6-(1-methylcyclopropyl)pyrido[4,3-d]pyrimidin-7(6H)-one]	< 100 nM
